Reference: ChEMBL document CHEMBL1136268, “Retinoic acid receptor ligands based on the 6-cyclopropyl-2,4-hexadienoic acid” (Bioorg Med Chem Lett, 2003)
Substitutions are numbered along the chain they refer to.

Assays:
[1] = biological target: T1, Retinoic acid receptor gamma (Homo sapiens, UniProt P13631); test: Inhibition of [3H]ATRA binding to human Retinoic acid receptor RAR gamma
T1 sequence (P13631 whole entry): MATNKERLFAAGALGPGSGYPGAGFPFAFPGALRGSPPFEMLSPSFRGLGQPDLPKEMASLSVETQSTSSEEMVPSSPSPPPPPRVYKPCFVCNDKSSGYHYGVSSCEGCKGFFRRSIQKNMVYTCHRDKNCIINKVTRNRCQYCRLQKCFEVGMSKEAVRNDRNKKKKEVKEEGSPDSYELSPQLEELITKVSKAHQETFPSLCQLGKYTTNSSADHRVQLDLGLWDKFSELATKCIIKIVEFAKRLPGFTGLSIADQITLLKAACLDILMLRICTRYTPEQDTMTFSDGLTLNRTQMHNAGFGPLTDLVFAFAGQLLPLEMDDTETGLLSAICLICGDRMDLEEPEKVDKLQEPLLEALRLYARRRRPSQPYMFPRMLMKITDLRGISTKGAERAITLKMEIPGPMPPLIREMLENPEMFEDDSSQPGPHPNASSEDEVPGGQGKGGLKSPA

[2] = biological target: T2, Retinoic acid receptor RXR-gamma (Homo sapiens, UniProt P48443); test: Inhibition of [3H]-9-cis-RA binding to human Retinoid X receptor RXR gamma
T2 sequence (P48443 whole entry): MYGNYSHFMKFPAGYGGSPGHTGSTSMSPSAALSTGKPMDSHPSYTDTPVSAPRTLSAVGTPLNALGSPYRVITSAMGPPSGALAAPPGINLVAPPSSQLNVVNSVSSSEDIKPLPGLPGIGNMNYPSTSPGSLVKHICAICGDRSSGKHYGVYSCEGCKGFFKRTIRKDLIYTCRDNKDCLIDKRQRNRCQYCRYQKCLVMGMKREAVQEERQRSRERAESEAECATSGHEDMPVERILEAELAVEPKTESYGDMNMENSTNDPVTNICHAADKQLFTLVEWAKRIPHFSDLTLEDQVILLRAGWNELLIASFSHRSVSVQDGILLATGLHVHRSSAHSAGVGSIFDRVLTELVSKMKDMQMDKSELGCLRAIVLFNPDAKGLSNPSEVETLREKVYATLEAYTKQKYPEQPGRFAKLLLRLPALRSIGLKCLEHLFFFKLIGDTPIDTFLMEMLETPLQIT

[3] = biological target: T3, Retinoic acid receptor beta (Homo sapiens, UniProt P10826); test: Transcriptional activation in CV-1 cells expressing human Retinoic acid receptor RAR beta; Not active; type: cell-based
T3 sequence (P10826 whole entry): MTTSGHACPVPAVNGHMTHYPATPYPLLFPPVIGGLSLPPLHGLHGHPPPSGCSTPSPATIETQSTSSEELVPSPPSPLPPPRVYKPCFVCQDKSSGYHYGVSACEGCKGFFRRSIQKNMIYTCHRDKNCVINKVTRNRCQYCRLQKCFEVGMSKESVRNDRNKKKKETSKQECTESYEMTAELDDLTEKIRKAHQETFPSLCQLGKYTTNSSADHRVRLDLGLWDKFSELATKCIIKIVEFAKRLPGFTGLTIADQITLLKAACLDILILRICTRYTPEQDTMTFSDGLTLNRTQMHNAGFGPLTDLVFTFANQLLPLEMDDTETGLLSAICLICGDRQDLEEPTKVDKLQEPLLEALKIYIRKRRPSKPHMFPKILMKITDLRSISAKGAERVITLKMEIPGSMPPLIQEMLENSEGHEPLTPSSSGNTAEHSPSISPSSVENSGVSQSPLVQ

[4] = biological target: T3, Retinoic acid receptor beta; test: Inhibition of [3H]-ATRA binding to human Retinoic acid receptor RAR beta
[5] = biological target: T4, Retinoic acid receptor alpha (Homo sapiens, UniProt P10276); test: Transcriptional activation in CV-1 cells expressing human Retinoic acid receptor RAR alpha; Not active; type: cell-based
T4 sequence (P10276 whole entry): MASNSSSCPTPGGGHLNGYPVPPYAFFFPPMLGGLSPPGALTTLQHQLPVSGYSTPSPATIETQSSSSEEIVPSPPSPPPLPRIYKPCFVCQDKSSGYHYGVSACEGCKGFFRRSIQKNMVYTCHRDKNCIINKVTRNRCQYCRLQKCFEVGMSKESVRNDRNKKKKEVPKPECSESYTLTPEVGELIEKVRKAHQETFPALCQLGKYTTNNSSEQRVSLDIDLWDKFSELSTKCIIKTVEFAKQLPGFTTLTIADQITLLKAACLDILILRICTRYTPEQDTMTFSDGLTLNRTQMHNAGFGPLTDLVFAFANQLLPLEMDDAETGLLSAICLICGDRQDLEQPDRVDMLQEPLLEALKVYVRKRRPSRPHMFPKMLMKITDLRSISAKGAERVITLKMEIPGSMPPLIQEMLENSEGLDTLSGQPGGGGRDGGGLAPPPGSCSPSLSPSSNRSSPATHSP

[6] = biological target: T4, Retinoic acid receptor alpha; test: Inhibition of [3H]ATRA binding to human Retinoic acid receptor RAR alpha
[7] = biological target: T1, Retinoic acid receptor gamma; test: Transcriptional activation in CV-1 cells expressing human Retinoic acid receptor RAR gamma; Not active; type: cell-based
[8] = biological target: T5, Retinoic acid receptor RXR-alpha (Homo sapiens, UniProt P19793); test: Inhibition of [3H]9-cis-RA binding to human Retinoid X receptor RXR alpha
T5 sequence (P19793 whole entry): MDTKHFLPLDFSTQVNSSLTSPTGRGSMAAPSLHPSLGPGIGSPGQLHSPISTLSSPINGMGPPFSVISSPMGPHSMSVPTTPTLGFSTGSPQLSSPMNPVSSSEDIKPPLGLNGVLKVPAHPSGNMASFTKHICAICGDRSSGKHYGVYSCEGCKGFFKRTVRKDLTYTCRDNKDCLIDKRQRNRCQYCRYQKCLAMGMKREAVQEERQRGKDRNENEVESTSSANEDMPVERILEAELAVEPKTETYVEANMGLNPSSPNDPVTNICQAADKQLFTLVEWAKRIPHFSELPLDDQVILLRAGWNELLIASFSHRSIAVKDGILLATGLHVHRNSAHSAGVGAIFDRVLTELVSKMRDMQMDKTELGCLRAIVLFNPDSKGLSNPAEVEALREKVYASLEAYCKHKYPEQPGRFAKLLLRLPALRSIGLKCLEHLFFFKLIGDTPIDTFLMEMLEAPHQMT

[9] = biological target: T6, Retinoic acid receptor RXR-gamma (Mus musculus, UniProt P28705); test: Transcriptional activation in CV-1 cells expressing mouse Retinoid X receptor RXR gamma; type: cell-based
T6 sequence (P28705 whole entry): T2 sequence (P48443 whole entry) with A13T, Y15F, A31V, S34P, T228S, G230S, M258V, T450S

[10] = biological target: T5, Retinoic acid receptor RXR-alpha; test: Transcriptional activation in CV-1 cells expressing human Retinoid X receptor RXR-alpha; type: cell-based
[11] = biological target: T7, Retinoic acid receptor RXR-beta (Mus musculus, UniProt P28704); test: Inhibition of [3H]9-cis-RA binding to mouse Retinoid X receptor RXR beta
T7 sequence (P28704 whole entry): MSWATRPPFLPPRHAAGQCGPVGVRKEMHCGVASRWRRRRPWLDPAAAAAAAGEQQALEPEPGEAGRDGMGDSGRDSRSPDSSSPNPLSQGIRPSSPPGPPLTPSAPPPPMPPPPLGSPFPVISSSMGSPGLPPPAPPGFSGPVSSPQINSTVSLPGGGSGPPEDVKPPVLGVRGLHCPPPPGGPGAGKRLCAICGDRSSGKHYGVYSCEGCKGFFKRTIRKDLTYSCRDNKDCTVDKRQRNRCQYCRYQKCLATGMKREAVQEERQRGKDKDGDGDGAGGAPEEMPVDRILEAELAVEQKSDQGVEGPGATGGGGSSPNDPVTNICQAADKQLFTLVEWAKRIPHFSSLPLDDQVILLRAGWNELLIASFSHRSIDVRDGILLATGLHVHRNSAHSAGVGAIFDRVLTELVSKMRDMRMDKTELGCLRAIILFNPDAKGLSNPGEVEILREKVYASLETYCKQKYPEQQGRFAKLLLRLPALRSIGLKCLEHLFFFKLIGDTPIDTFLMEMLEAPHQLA

[12] = biological target: T7, Retinoic acid receptor RXR-beta; test: Transcriptional activation in CV-1 cells expressing mouse Retinoid X receptor RXR beta; type: cell-based
[13] = biological target: T3, Retinoic acid receptor beta; test: Transcriptional activation in CV-1 cells expressing human Retinoic acid receptor RAR beta; type: cell-based
[14] = biological target: T4, Retinoic acid receptor alpha; test: Transcriptional activation in CV-1 cells expressing human Retinoic acid receptor RAR alpha; type: cell-based
[15] = biological target: T1, Retinoic acid receptor gamma; test: Transcriptional activation in CV-1 cells expressing human Retinoic acid receptor RAR gamma; type: cell-based

| Structure (SMILES) | Kd [1] | Kd [2] | EC50 [3] | Kd [4] | EC50 [5] | Kd [6] | EC50 [7] | Kd [8] | EC50 [9] | EC50 [10] | Kd [11] | EC50 [12] | EC50 [13] | EC50 [14] | EC50 [15] |
| --- | --- | --- | --- | --- | --- | --- | --- | --- | --- | --- | --- | --- | --- | --- | --- |
| CC(/C=C/CC1(c2cc(C(C)(C)C)cc3c2CCC3(C)C)CC1)=C\C(=O)O | > 1000 nM | 22 nM | Not Active | > 1000 nM | Not Active | > 1000 nM | Not Active |  |  |  |  |  |  |  |  |
| CC(/C=C/CC1(c2cc3c(cc2C)C(C)(C)CCC3(C)C)CC1)=C\C(=O)O | > 1000 nM | 153 nM | Not Active |  | Not Active | > 1000 nM | Not Active | 16 nM | 36 nM | 31 nM | 18 nM | 9 nM |  |  |  |
| CC(/C=C/CC1(c2ccc3c(c2)C(C)(C)CCC3(C)C)CC1)=C\C(=O)O |  | 8 nM |  |  |  |  |  |  |  |  |  |  |  |  |  |
| CC(/C=C/CC1(c2cc(C(C)(C)C)cc(C(C)(C)C)c2)CC1)=C\C(=O)O | > 1000 nM |  |  | > 1000 nM |  | > 1000 nM |  | 3 nM | 23 nM | 30 nM | 8 nM | 19 nM | 139 nM | 733 nM | 391 nM |
| CC(/C=C/CC1(c2ccc3c(c2)C(C)(C)CCC3(C)C)CCCC1)=C\C(=O)O | > 1000 nM | 6 nM | Not Active | > 1000 nM | Not Active | > 1000 nM | Not Active |  | 24 nM |  | 7 nM | 19 nM |  |  |  |
